# Patent publication US4122202A, “Amino-3H-isobenzofuranones N-substitutes and their therapeutic application” (Societe Cortial, priority 1975, dated 1978)
# Like-named read-outs stand apart in the source and are kept apart here.
# Experiments:
# mice = test: Analgesic activity: protection against abdominal twisting induced by phenylbenzoquinone (PBQ); format: in vivo; conditions: Mus musculus, oral, read-out: AD 50 (the source's name)
# Method: All products were administered in gummy julep except No. 1 and No. 13 which were administered in Tween. The analgesic activity were determined in mice by utilizing as a nociceptive agent, phenylbenzoquinone (PBQ) (modification of the method by Siegmund and co-workers Proc. Soc. Exp. Biol. Med. 1957, 95, 729-31). The process consists of seeking a possible protection for the mouse vis-a-vis abdominal twisting and stretching of the hind legs induced by the parental injection of PBQ. 25 minutes after having orally administered the products to be tested in suspension in 2% Tween 80 or in 6% gummy julep, the PBQ solution was injected and the mice were observed after 5 minutes during the following 5 minutes. For certain products, AD 50 is presented as a measure of activity. […]
# rats [1] = test: Ulcerous activity (modified method of Colot); format: in vivo, female EOPS rats; conditions: 83 mg/kg oral daily
# Method: Ulcerous activity was determined according to a modification of the method by Colot (Technical notions of general pharmacology, 1972) in the case of femal EOPS rats of approximately 150 g. The animals were left without absolutely any food, while the test products were orally administered on a daily basis in suspension in 2% Tween at a volume of 0.5 ml/100 g. The animals were killed under chloroform and the stomachs were removed. Ulcerous activity was established by means of an index taking into account the degree of ulceration and the percentage of animals effected.
# In the table given below, a comparison is shown between the results obtained with niflumic acid and product No. 1.
# rats [2] = test: Anti-inflammatory activity: carragenic test (carragenine-induced edema of the hind leg); format: in vivo, male rats; conditions: Rattus norvegicus, oral, read-out: ED 50
# Method: All products were administered in gummy julep except No. 1 and No. 13 which were administered in suspension in Tween. The anti-inflammatory activity was determined by the carragenic test with male rats. Inflammation was induced by the injection of 0.1 ml of a 0.5% suspension of carragenine in a physiological serum into the muscular fasciculus of the metatarsal region of the hind leg of the animal. The substance to be tested was orally administered simultaneously with the carragenine. The edema was measured by phethysmography 1, 2, 3, 4, 5 and 6 hours after the administration of the carragenine.
# **50 mg/kg No. 13 which were administered in suspension in Tween.
# [3] = Oral toxicity in mice (LDO, LD50); format: in vivo; conditions: mouse, in vivo, gummy julep (No. 1 and 13 in Tween), 2 weeks observation
# Method: This toxicity is estimated by the calculation of the lethal dose of 50 (LD 50) which determines the fatal dose of the substance for 50% of the animals tested. This determination was effected in accordance with a modification of the method by Litchfield and Wilcoxon (J. Pharmacol. Exp. Therap. 1949, 96, 99-113).
# Swiss mice without specific pathogenic organisms were kept in air conditioned rooms 24 to 48 hours before the start of the tests. They were divided into batches of 5.male. and 5.female.. With the animals unfed for 24 hours, the substances were intragastically administered in suspension in 2% Tween 80 or in 6% gummy julep in a volume equivalent to 0.1 ml per 10 g of the weight of the animal.
# They remained under observation for two weeks before being killed and subjected to an autopsy.
# All products were administered in gummy julep except No. 1 and No. 13 which were administered in Tween. The analgesic activity were determined in mice by utilizing as a nociceptive agent, phenylbenzoquinone (PBQ) (modification of the method by Siegmund and co-workers Proc. Soc. Exp. Biol. Med. 1957, 95, 729-31). The process consists of seeking a possible protection for the mouse vis-a-vis abdominal twisting and stretching of the hind legs induced by the parental injection of PBQ. 25 minutes after having orally administered the products to be tested in suspension in 2% Tween 80 or in 6% gummy julep, the PBQ solution was injected and the mice were observed after 5 minutes during the following 5 minutes. For certain products, AD 50 is presented as a measure of activity.
smiles,measurement,setting,value
O=C(O)c1cccnc1Nc1cccc(C(F)(F)F)c1 [Niflumic acid],ED50,mice,17 mg/kg
same,IA: Acute ulceration index,rats [1]; 1 day,8
same,IC: Ulceration index on the way of cicatrization,rats [1]; 1 day,380
same,IT: Total index,rats [1]; 1 day,388
same,IA: Acute ulceration index,rats [1]; 3 days,16
same,IC: Ulceration index on the way of cicatrization,rats [1]; 3 days,206
same,IT: Total index,rats [1]; 3 days,222
same,ED50,rats [2]; 2H,34 mg/kg
same,ED50,rats [2]; 4H,125 mg/kg
same,LD50 at 336 h,[3],~350 mg/kg
